Laboratory results from patent publication US9834542B2, “LXR modulators” (BRISTOL-MYERS SQUIBB COMPANY, priority 2013, dated 2017).

Target: T1, LXRβ (Homo sapiens, UniProt P55055)
T1 construct: Co-transfection expression plasmids, comprising full-length LXRα (pCMX-h LXRα[…] or LXRβ (pCMX-hLXRβ)); expressed in transfected cells; host or cells: CV-1 African Green Monkey Kidney Cells
T1 sequence (P55055 1-460): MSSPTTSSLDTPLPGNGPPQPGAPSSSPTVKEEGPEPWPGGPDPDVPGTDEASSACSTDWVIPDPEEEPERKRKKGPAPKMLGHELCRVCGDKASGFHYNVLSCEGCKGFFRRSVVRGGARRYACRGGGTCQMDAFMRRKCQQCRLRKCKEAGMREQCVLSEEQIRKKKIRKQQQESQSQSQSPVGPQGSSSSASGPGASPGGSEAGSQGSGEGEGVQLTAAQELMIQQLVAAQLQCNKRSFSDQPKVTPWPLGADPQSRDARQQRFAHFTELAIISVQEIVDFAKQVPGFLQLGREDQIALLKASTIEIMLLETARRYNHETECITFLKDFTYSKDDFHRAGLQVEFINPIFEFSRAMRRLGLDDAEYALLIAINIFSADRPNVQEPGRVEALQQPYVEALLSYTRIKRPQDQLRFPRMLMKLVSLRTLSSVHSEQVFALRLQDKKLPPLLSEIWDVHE
T1 sequence (P19793 1-462 partner): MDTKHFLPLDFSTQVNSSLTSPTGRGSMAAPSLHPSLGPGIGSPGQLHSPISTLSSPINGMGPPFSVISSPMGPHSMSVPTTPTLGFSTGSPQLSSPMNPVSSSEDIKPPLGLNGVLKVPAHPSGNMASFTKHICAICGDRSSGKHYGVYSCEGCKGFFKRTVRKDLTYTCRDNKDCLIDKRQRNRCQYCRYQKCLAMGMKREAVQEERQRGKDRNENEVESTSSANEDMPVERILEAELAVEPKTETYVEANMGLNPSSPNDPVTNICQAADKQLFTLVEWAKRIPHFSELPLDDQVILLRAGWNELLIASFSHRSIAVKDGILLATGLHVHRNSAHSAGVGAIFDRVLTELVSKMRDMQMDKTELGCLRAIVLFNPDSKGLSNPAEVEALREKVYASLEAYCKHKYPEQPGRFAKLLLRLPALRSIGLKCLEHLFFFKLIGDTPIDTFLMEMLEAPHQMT
Experiment: Co-transfection assay (LXRE luciferase reporter), LXRβ
Assay type: cell-based
Conditions: for EC50: CV-1 cells transfected with pCMX-hLXRβ and LXREx1-Tk-Luciferase, 20 hours incubation; for Emax: LXRβ co-transfection, relative to high control 1-(2,4-difluorobenzyl)-2-oxo-6-(4-phenoxyphenyl)-4-(trifluoromethyl)-1,2-dihydropyridine-3-carbonitrile, read-out: % Efficacy
Outline: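 Luciferase output from an LXRE-Tk reporter measured after 20 h, 37 °C compound exposure of transiently transfected CV-1 cells expressing human LXRβ with endogenous RXR. EC50 fitted from 11-point half-log dose responses (mean of ≥2 runs); % efficacy versus maximal response of the reference agonist.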

Compound	EC50	Emax
Cc1nc(C(F)F)c(C)n1-c1ccc(-c2cc(F)c(CO)c(S(C)(=O)=O)c2)cc1-n1nncc1-c1ccc(Cl)cc1 [Example 231, (3′-(5-(4-chlorophenyl)-1H-1,2,3-triazol-1-yl)-4′-(4-(difluoromethyl)-2,5-dimethyl-1H-imidazol-1-yl)-3-fluoro-5-(methylsulfonyl)-[1,1′-biphenyl]-4-yl)methanol]	1680 nM	37%
Cc1nc(C(F)(F)F)cn1-c1ccc(-c2cccc(S(C)(=O)=O)c2)cc1-n1nncc1-c1cccc(C(F)(F)F)c1 [Example 25, 1-{3′-(methylsulfonyl)-4-[2-methyl-4-(trifluoromethyl)-1H-imidazol-1-yl]biphenyl-3-yl}-5-[3-(trifluoromethyl)phenyl]-1H-1,2,3-triazole]	529 nM	116%
Cc1nc(-c2cc(-c3cccc(S(C)(=O)=O)c3)ccc2-n2cc(C(F)(F)F)nc2C)c(-c2ccc(C(F)(F)F)cc2)o1 [Example 513, 2-methyl-4-(4-(2-methyl-4-(trifluoromethyl)-1H-imidazol-1-yl)-3′-(methylsulfonyl)biphenyl-3-yl)-5-(4-(trifluoromethyl)phenyl)oxazole]	137 nM	64%
Cc1nc(-c2cc(-c3ccc(C)c(S(C)(=O)=O)c3)ccc2-n2cc(C(F)(F)F)nc2C)c(-c2cc(F)c(OC(F)F)c(F)c2)o1 [Example 470, 5-(4-(difluoromethoxy)-3,5-difluorophenyl)-2-methyl-4-(4′-methyl-4-(2-methyl-4-(trifluoromethyl)-1H-imidazol-1-yl)-3′-(methylsulfonyl)biphenyl-3-yl)oxazole]	109 nM	56%
Cc1ccc(C(C)c2cnnn2-c2cc(-c3cccc(S(=O)(=O)N(C)C)c3)ccc2-n2cc(C(F)(F)F)nc2C)cc1 (stereo not shown) [Example 105, N,N-dimethyl-3′-{5-[1-(4-methylphenyl)ethyl]-1H-1,2,3-triazol-1-yl}-4′-[2-methyl-4-(trifluoromethyl)-1H-imidazol-1-yl]biphenyl-3-sulfonamide]	227 nM	70%
Cc1nc(C(F)(F)F)cn1-c1ccc(-c2cc(F)c(CO)c(S(C)(=O)=O)c2)cc1-c1ccnn1-c1ccc2c(c1)OC(F)(F)O2 [Example 294, (3′-(1-(2,2-difluorobenzo[d][1,3]dioxol-5-yl)-1H-pyrazol-5-yl)-3-fluoro-4′-(2-methyl-4-(trifluoromethyl)-1H-imidazol-1-yl)-5-(methylsulfonyl)biphenyl-4-yl)methanol]	57 nM	87%
Cc1nc(C(F)(F)F)cn1-c1c(F)cc(-c2cccc(S(C)(=O)=O)c2)cc1-n1nncc1-c1ccc(OC(F)(F)F)cc1 [Example 201, 1-{5-fluoro-3′-(methylsulfonyl)-4-[2-methyl-4-(trifluoromethyl)-1H-imidazol-1-yl]biphenyl-3-yl}-5-{4-[(trifluoromethyl)oxy]phenyl)-1H-1,2,3-triazole]	127 nM	81%
Cc1nc(C(F)(F)F)cn1-c1ccc(-c2cccc(S(=O)(=O)N(C)C)c2)cc1-n1nncc1-c1ccc(OC(F)(F)F)cc1 [Example 214, N,N-dimethyl-4′-(2-methyl-4-(trifluoromethyl)-1H-imidazol-1-yl)-3′-(5-(4-(trifluoromethoxy)phenyl)-1H-1,2,3-triazol-1-yl)-[1,1′-biphenyl]-3-sulfonamide]	210 nM	87%
Cc1nc(-c2ccc3c(c2)OC(F)(F)O3)c(-c2cc(-c3ccc(CO)c(S(C)(=O)=O)c3)ccc2-n2cc(C(F)(F)F)nc2C)o1 [Example 616, (3′-(4-(2,2-difluorobenzo[d][1,3]dioxol-5-yl)-2-methyloxazol-5-yl)-4′-(2-methyl-4-(trifluoromethyl)-1H-imidazol-1-yl)-3-(methylsulfonyl)-[1,1′-biphenyl]-4-yl)methanol]	45 nM	96%
Cc1ccc(-c2oc(C)nc2-c2cc(-c3cccc(S(C)(=O)=O)c3)ccc2-n2cc(C(F)(F)F)nc2C)cc1 [Example 491, 2-methyl-4-(4-(2-methyl-4-(trifluoromethyl)-1H-imidazol-1-yl)-3′-(methylsulfonyl)-[1,1′-biphenyl]-3-yl)-5-(p-tolyl)oxazole]	63 nM	71%
Cc1nc(C(F)(F)F)cn1-c1c(F)cc(-c2cccc(S(=O)(=O)NCCO)c2)cc1-n1nncc1-c1ccc(OC(F)(F)F)cc1 [Example 208, 3′-fluoro-N-(2-hydroxyethyl)-4′-[2-methyl-4-(trifluoromethyl)-1H-imidazol-1-yl]-5′-(5-{4-[(trifluoromethyl)oxy]phenyl}-1H-1,2,3-triazol-1-yl)biphenyl-3-sulfonamide]	1270 nM	77%
Cc1nc(Cl)cn1-c1ccc(-c2cccc(S(C)(=O)=O)c2)cc1-n1nncc1-c1ccc(OC(F)(F)F)cc1 [Example 149, 1-[4-(4-chloro-2-methyl-1H-imidazol-1-yl)-3′-(methylsulfonyl)biphenyl-3-yl]-5-{4-[(trifluoromethyl)oxy]phenyl}-1H-1,2,3-triazole]	444 nM	75%
Cc1nc(-c2ccccc2OC(F)(F)F)c(-c2cc(-c3cccc(S(C)(=O)=O)c3)ccc2-n2cc(C(F)(F)F)nc2C)o1 [Example 631, 2-methyl-5-(4-(2-methyl-4-(trifluoromethyl)-1H-imidazol-1-yl)-3′-(methylsulfonyl)-[1,1′-biphenyl]-3-yl)-4-(2-(trifluoromethoxy)phenyl)oxazole]	216 nM	43%
Cc1nc(C(F)(F)F)cn1-c1ccc(-c2cccc(S(C)(=O)=O)c2)cc1-c1ocnc1Cc1ccc(OC(F)(F)F)cc1 [Example 636, 5-(4-(2-methyl-4-(trifluoromethyl)-1H-imidazol-1-yl)-3′-(methylsulfonyl)-[1,1′-biphenyl]-3-yl)-4-(4-(trifluoromethoxy)benzyl)oxazole]	702 nM	41%
Cc1nc(-c2cc(-c3cc(F)cc(S(C)(=O)=O)c3)ccc2-n2cc(C(F)(F)F)nc2C)c(-c2ccc3c(c2)OC(F)(F)O3)o1 [Example 463, 5-(2,2-difluorobenzo[d][1,3]dioxol-5-yl)-4-(3′-fluoro-4-(2-methyl-4-(trifluoromethyl)-1H-imidazol-1-yl)-5′-(methylsulfonyl)biphenyl-3-yl)-2-methyloxazole]	155 nM	73%
Cc1nc(C(F)(F)F)cn1-c1ccc(-c2cccc(S(C)(=O)=O)c2)cc1-c1ocnc1-c1ccc(OC(F)(F)F)cc1 [Example 361, 5-{3′-(methylsulfonyl)-4-[2-methyl-4-(trifluoromethyl)-1H-imidazol-1-yl]biphenyl-3-yl}-4-{4-[(trifluoromethyl)oxy]phenyl}-1,3-oxazole]	183 nM	89%
Cc1nc(C(F)(F)F)cn1-c1ccc(-c2cccc(C(C)(C)C(N)=O)c2)cc1-c1cnnn1-c1ccc(OC(F)(F)F)cc1 [Example 241, 2-methyl-2-{4′-[2-methyl-4-(trifluoromethyl)-1H-imidazol-1-yl]-3′-(1-{4-[(trifluoromethyl)oxy]phenyl}-1H-1,2,3-triazol-5-yl)biphenyl-3-yl}propanamide]	405 nM	111%
Cc1nc(C(F)(F)F)cn1-c1ccc(-c2cccc(S(C)(=O)=O)c2)cc1-n1nncc1-c1ccc2c(c1)OC(F)(F)O2 [Example 73, 5-(2,2-difluoro-1,3-benzodioxol-5-yl)-1-{3′-(methylsulfonyl)-4-[2-methyl-4-(trifluoromethyl)-1H-imidazol-1-yl]biphenyl-3-yl}-1H-1,2,3-triazole]	476 nM	99%
Cc1nc(C(F)(F)F)cn1-c1c(F)cc(-c2cccc(S(=O)(=O)N3CCCC3)c2)cc1-n1nncc1-c1ccc(OC(F)(F)F)cc1 [Example 199, 1-{5-fluoro-4-[2-methyl-4-(trifluoromethyl)-1H-imidazol-1-yl]-3′-(pyrrolidin-1-ylsulfonyl)biphenyl-3-yl}-5-{4-[(trifluoromethyl)oxy]phenyl}-1H-1,2,3-triazole]	384 nM	66%
Cc1nc(C(F)(F)F)cn1-c1ccc(-c2cccc(S(C)(=O)=O)c2)cc1-n1nncc1C(C)c1ccc(Cl)cc1 (stereo not shown) [Example 108, 5-[1-(4-chlorophenyl)ethyl]-1-{3′-(methylsulfonyl)-4-[2-methyl-4-(trifluoromethyl)-1H-imidazol-1-yl]biphenyl-3-yl}-1H-1,2,3-triazole]	149 nM	62%
